Reference: the supplement of paper PMC10307832

Experiments:
Test in all cases: relative viability (nuclei count vs DMSO), 5 days (fraction); higher = more cells survive
[1] = compound: Nc1ccn([C@@H]2O[C@H](CO)[C@@H](O)C2(F)F)c(=O)n1 [Gemcitabine]
How it was run: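 Five library-drug doses spaced by √10 were pinned onto vehicle-anchored 1536-well plates of lung cancer cell lines that had been kept overnight at 37 °C. Cells went 5 days without medium change, then were fixed, permeabilised and Hoechst-stained together, imaged at 4× and counted by MetaXpress. Viability is the ratio of treated-well to vehicle-well nuclei, taken as a median over plates. Plates required control CV below 25% and at least one doubling.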

[2] = compound: Nc1ccn([C@@H]2O[C@H](CO)[C@@H](O)C2(F)F)c(=O)n1 [Gemcitabine] + CC1(C)CCC(c2ccc(Cl)cc2)=C(CN2CCN(c3ccc(C(=O)NS(=O)(=O)c4ccc(N[C@H](CCN5CCOCC5)CSc5ccccc5)c(S(=O)(=O)C(F)(F)F)c4)cc3)CC2)C1 [Navitoclax] (partner 0.5 µM)
How it was run: (§1)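 Lung cancer cell lines in 1536-well plates were dosed by pin tool the day after seeding, either with one drug alone or with a fixed anchor-drug dose plus five library-drug doses (not always all listed) in √10 steps. After 5 days, cells were fixed and their nuclei stained in one step (final 0.05% Triton X-100, 1% formaldehyde, 1 ug/ml Hoechst), then counted on 4× images. Relative viability is the nuclei count in treated wells divided by that in vehicle wells. Values are medians of duplicate plates.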

[3] = compound: Nc1ccn([C@@H]2O[C@H](CO)[C@@H](O)C2(F)F)c(=O)n1 [Gemcitabine] + Cc1cc(Nc2cc(N3CCN(C)CC3)nc(Sc3ccc(NC(=O)C4CC4)cc3)n2)n[nH]1 [Tozasertib] (partner 0.1 µM)
How it was run: as §1

[4] = compound: Nc1ccn([C@@H]2O[C@H](CO)[C@@H](O)C2(F)F)c(=O)n1 [Gemcitabine] + N=C(N)NC(=N)NCCc1ccccc1 [Phenformin] (partner 250 µM)
How it was run: as §1

| Cell Line | relative viability ([1]; 0.001 µM) | relative viability ([1]; 0.003162 µM) | relative viability ([1]; 0.01 µM) | relative viability ([1]; 0.03162 µM) | relative viability ([1]; 0.1 µM) | relative viability ([2]; first compound 0.001 µM) | relative viability ([2]; first compound 0.003162 µM) | relative viability ([2]; first compound 0.01 µM) | relative viability ([2]; first compound 0.03162 µM) | relative viability ([2]; first compound 0.1 µM) | relative viability ([3]; first compound 0.001 µM) | relative viability ([3]; first compound 0.003162 µM) | relative viability ([3]; first compound 0.01 µM) | relative viability ([3]; first compound 0.03162 µM) | relative viability ([3]; first compound 0.1 µM) | relative viability ([4]; first compound 0.001 µM) | relative viability ([4]; first compound 0.003162 µM) | relative viability ([4]; first compound 0.01 µM) | relative viability ([4]; first compound 0.03162 µM) | relative viability ([4]; first compound 0.1 µM) |
| --- | --- | --- | --- | --- | --- | --- | --- | --- | --- | --- | --- | --- | --- | --- | --- | --- | --- | --- | --- | --- |
| NCI-H2228 | 0.973 | 0.695 | 0.235 | 0.161 | 0.132 | 1.13 | 0.407 | 0.203 | 0.0863 | 0.0652 | 0.278 | 0.209 | 0.154 | 0.108 | 0.115 | 0.304 | 0.168 | 0.126 | 0.111 | 0.0895 |
| NCI-H2347 | 1 | 0.915 | 0.68 | 0.492 | 0.381 | 0.86 | 0.64 | 0.639 | 0.334 | 0.206 | 0.563 | 0.547 | 0.484 | 0.29 | 0.259 | 0.381 | 0.346 | 0.304 | 0.275 | 0.221 |
| NCI-H2405 | 0.995 | 0.66 | 0.533 | 0.268 | 0.211 | 0.992 | 0.551 | 0.0966 | 0.084 | 0.0831 | 0.812 | 0.709 | 0.495 | 0.221 | 0.216 | 0.405 | 0.26 | 0.247 | 0.192 | 0.173 |
| NCI-H3122 | 0.975 | 1.04 | 0.913 | 0.214 | 0.14 | 1.02 | 1.03 | 0.912 | 0.253 | 0.196 | 0.428 | 0.365 | 0.222 | 0.106 | 0.0862 | 0.436 | 0.322 | 0.165 | 0.13 | 0.121 |
| PC-3 [JPC-3] | 1.1 | 0.779 | 0.771 | 0.36 | 0.373 | 0.81 | 0.688 | 0.504 | 0.448 | 0.281 | 0.902 | 0.796 | 0.666 | 0.264 | 0.237 | 0.503 | 0.446 | 0.365 | 0.325 | 0.287 |
| PC-14 | 0.97 | 0.407 | 0.151 | 0.0526 | 0.0522 | 0.986 | 0.813 | 0.619 | 0.035 | 0.0244 | 0.579 | 0.275 | 0.078 | 0.0297 | 0.0356 | 0.558 | 0.113 | 0.0527 | 0.0312 | 0.0491 |
| RERF-LC-KJ | 1.01 | 1 | 0.973 | 0.496 | 0.247 | 1.05 | 1.26 | 0.872 | 0.224 | 0.227 | 0.596 | 0.543 | 0.578 | 0.323 | 0.229 | 0.454 | 0.455 | 0.404 | 0.285 | 0.26 |
| SK-LU-1 | 1.01 | 0.479 | 0.243 | 0.191 | 0.228 | 0.526 | 0.224 | 0.0818 | 0.117 | 0.118 | 0.303 | 0.207 | 0.131 | 0.145 | 0.14 | 0.578 | 0.272 | 0.154 | 0.115 | 0.124 |
| SK-MES-1 | 0.945 | 0.473 | 0.216 | 0.203 | 0.17 | 0.929 | 0.723 | 0.158 | 0.0905 | 0.077 | 0.691 | 0.305 | 0.197 | 0.147 | 0.126 | 0.552 | 0.249 | 0.191 | 0.158 | 0.154 |
| SW 1573 | 0.911 | 0.736 | 0.239 | 0.101 | 0.0671 | 1.18 | 0.986 | 0.0907 | 0.0747 | 0.0361 | 0.189 | 0.165 | 0.0964 | 0.0589 | 0.0466 | 0.353 | 0.202 | 0.104 | 0.0718 | 0.0652 |
| UMC-11 | 1.04 | 0.992 | 0.974 | 0.869 | 0.375 | 0.376 | 0.309 | 0.291 | 0.21 | 0.118 | 0.197 | 0.162 | 0.221 | 0.211 | 0.215 | 0.384 | 0.349 | 0.328 | 0.275 | 0.185 |
